Experimental findings from patent US8435980B2 (AbbVie Inc., priority 2009, dated 2013) are described below.

pKi: −log10 of the molar value. Where only a bound is given, the exact number is not on record here.

The target in this test is T1, Cdc7 (BEV coexpressed huCDC7/DBF4) (Homo sapiens, UniProt O00311).
T1 construct: made in house; host or cells: BEV (baculovirus expression vector) co-expression; insect cells are implied but no cell line is named
T1 sequence (O00311 whole entry): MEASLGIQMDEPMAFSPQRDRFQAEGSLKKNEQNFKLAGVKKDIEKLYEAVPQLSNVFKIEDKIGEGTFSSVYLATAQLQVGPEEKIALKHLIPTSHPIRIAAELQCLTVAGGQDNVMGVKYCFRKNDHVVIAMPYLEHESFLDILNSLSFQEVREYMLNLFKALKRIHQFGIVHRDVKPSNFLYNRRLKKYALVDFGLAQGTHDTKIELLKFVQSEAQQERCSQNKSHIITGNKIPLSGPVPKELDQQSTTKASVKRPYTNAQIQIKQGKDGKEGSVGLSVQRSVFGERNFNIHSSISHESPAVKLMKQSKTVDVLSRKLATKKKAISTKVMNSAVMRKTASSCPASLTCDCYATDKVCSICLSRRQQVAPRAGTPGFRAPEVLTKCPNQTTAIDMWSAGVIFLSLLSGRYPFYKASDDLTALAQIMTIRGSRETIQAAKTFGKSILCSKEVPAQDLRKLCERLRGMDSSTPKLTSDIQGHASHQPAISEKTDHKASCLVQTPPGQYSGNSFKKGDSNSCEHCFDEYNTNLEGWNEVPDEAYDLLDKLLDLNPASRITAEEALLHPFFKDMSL
T1 sequence (Q9UBU7 whole entry partner): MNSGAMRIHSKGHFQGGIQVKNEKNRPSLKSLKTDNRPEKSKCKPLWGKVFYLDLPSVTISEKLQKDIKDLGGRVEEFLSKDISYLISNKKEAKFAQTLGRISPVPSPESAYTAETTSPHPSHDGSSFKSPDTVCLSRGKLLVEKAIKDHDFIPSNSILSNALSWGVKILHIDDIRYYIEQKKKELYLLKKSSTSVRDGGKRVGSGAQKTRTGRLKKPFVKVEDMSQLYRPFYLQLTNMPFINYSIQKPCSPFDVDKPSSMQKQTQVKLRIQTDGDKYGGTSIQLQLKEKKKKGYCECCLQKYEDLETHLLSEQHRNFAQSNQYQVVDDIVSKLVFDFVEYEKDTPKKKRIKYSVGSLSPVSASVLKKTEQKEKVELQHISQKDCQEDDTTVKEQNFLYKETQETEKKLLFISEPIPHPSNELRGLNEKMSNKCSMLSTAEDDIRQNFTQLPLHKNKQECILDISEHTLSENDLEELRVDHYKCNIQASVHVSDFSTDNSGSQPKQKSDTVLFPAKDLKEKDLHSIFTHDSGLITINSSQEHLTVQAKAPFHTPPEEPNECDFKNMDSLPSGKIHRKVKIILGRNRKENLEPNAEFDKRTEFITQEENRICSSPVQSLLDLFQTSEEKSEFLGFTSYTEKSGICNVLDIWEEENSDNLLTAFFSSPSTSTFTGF
As to the kind of experiment: Cdc7 enzyme inhibition assay ([33P]ATP, biotinylated peptide substrate, FlashPlate). The format is biochemical. The note with it: Table 3; enzyme inhibition data (Ki). How it is done:
Cdc7 (BEV coexpressed huCDC7/DBF4) is prepared internally. Cdc7 assays are conducted as follows with final concentrations as listed. […] Reactions are quenched after 1 hr by the addition of 90 μL stop buffer (50 mM EDTA, 2M NaCl). […] (Ki) for exemplary compounds.
On to `O=C(CN1CCN(C2CCCCC2)CC1)N[C@H]1CC[C@H](Nc2cc(-c3c[nH]c4ncccc34)cc(Cl)n2)CC1` [Example 231, N-(trans-4-{[6-chloro-4-(1H-pyrrolo[2,3-b]pyridin-3-yl)pyridin-2-yl]amino}cyclohexyl)-2-(4-cyclohexylpiperazin-1-yl)acetamide], for which the negative-log Ki (pKi) (commonly the Ki on a negative log10 scale, so that one unit is a factor of ten) was greater than 8.00.

`CCCCN1CCN(CC(=O)N[C@H]2CC[C@H](Nc3cc(-c4c[nH]c5ncccc45)cc(Cl)n3)CC2)CC1` [Example 232, 2-(4-butylpiperazine-1-yl)-N-(trans-4-{[6-chloro-4-(1H-pyrrolo[2,3-b]pyridin-3-yl)pyridin-2-yl]amino}cyclohexyl)acetamide]: the pKi is greater than 8.00. Regarding `O=C(CN1CCN(C(=O)c2ccco2)CC1)N[C@H]1CC[C@H](Nc2cc(-c3c[nH]c4ncccc34)cc(Cl)n2)CC1` [Example 233, N-(trans-4-{[6-chloro-4-(1H-pyrrolo[2,3-b]pyridin-3-yl)pyridin-2-yl]amino}cyclohexyl)-2-[4-(furan-2-ylcarbonyl)piperazin-1-yl]acetamide], the pKi is greater than 8.00. `N#Cc1ccccc1N1CCN(CC(=O)N[C@H]2CC[C@H](Nc3cc(-c4c[nH]c5ncccc45)cc(Cl)n3)CC2)CC1` [Example 234, N-(trans-4-{[6-chloro-4-(1H-pyrrolo[2,3-b]pyridin-3-yl)pyridin-2-yl]amino}cyclohexyl)-2-[4-(2-cyanophenyl)piperazin-1-yl]acetamide] showed a pKi greater than 8.00. For the compound `O=C(O)c1cnc2[nH]cc(-c3cc(Cl)nc(NC4CCCCC4)c3)c2c1` [Example 235, 3-[2-chloro-6-(cyclohexylamino)pyridin-4-yl]-1H-pyrrolo[2,3-b]pyridine-5-carboxylic acid], the pKi was greater than 8.00. In turn, `COc1cnc2[nH]cc(-c3cc(Cl)nc(NC4CCC(C5CCNCC5)CC4)c3)c2c1` (stereo not drawn) [Example 236, 6-chloro-4-(5-methoxy-1H-pyrrolo[2,3-b]pyridin-3-yl)-N-[4-(piperidin-4-yl)cyclohexyl]pyridin-2-amine] showed a pKi greater than 8.00. As to `COc1cnc2[nH]cc(-c3cc(Cl)nc(NC4CCC(CC5CCC(N)CC5)CC4)c3)c2c1` (stereo not drawn) [Example 237, N-{4-[(4-aminocyclohexyl)methyl]cyclohexyl}-6-chloro-4-(5-methoxy-1H-pyrrolo[2,3-b]pyridin-3-yl)pyridin-2-amine], the pKi was greater than 8.00. `COc1cnc2[nH]cc(-c3cc(Cl)nc(NC4CCC(CC5CCC(NC6CCCCC6)CC5)CC4)c3)c2c1` (stereo not drawn) [Example 238, 6-chloro-N-(4-{[4-(cyclohexylamino)cyclohexyl]methyl}cyclohexyl)-4-(5-methoxy-1H-pyrrolo[2,3-b]pyridin-3-yl)pyridin-2-amine] gave a pKi greater than 8.00. `Clc1cc(-c2c[nH]c3ncc(Nc4ccccc4)cc23)cc(NC2CCCCC2)n1` [Example 239, 3-[2-chloro-6-(cyclohexylamino)pyridin-4-yl]-N-phenyl-1H-pyrrolo[2,3-b]pyridin-5-amine] gave a pKi of 7.00 to 8.00. In turn, `COc1cnc2[nH]cc(-c3cc(Cl)nc(NC4CCC(CC5CCC(NC(=O)C6CC6)CC5)CC4)c3)c2c1` (stereo not drawn) [Example 240, N-[4-[(4-{[6-chloro-4-(5-methoxy-1H-pyrrolo[2,3-b]pyridin-3-yl)pyridin-2-yl]amino}cyclohexyl)methyl]cyclohexyl]cyclopropanecarboxamide] gave a pKi greater than 8.00. As to `C#CCOc1cnc2[nH]cc(-c3cc(Cl)nc(N[C@H]4CC[C@H](N)CC4)c3)c2c1` [Example 241, (trans)-N1-(6-chloro-4-(5-(prop-2-ynyloxy)-1H-pyrrolo[2,3-b]pyridin-3-yl)pyridin-2-yl)cyclohexane-1,4-diamine], the pKi is 7.00 to 8.00. Take `O=C(NCc1ccccn1)c1cnc2[nH]cc(-c3cc(Cl)nc(NC4CCCCC4)c3)c2c1` [Example 242, 3-[2-chloro-6-(cyclohexylamino)pyridin-4-yl]-N-(pyridin-2-ylmethyl)-1H-pyrrolo[2,3-b]pyridine-5-carboxamide]: the pKi was greater than 8.00. On to `Clc1cc(-c2c[nH]c3ncc(-c4cncnc4)cc23)cc(NC2CCCCC2)n1` [Example 243, 6-chloro-N-cyclohexyl-4-[5-(pyrimidin-5-yl)-1H-pyrrolo[2,3-b]pyridin-3-yl]pyridin-2-amine], for which the pKi is greater than 8.00.

`CCCCS(=O)(=O)N[C@H]1CC[C@H](Nc2cc(-c3c[nH]c4ncc(OC)cc34)cc(Cl)n2)CC1` [Example 244, N-(trans-4-{[6-chloro-4-(5-methoxy-1H-pyrrolo[2,3-b]pyridin-3-yl)pyridin-2-yl]amino}cyclohexyl)butane-1-sulfonamide] had a pKi greater than 8.00. The compound `Nc1ccc(-c2cnc3[nH]cc(-c4cc(Cl)nc(NC5CCCCC5)c4)c3c2)cn1` [Example 245, 4-[5-(6-aminopyridin-3-yl)-1H-pyrrolo[2,3-b]pyridin-3-yl]-6-chloro-N-cyclohexylpyridin-2-amine] had a pKi greater than 8.00. In the case of `COc1cnc2[nH]cc(-c3cc(Cl)nc(N[C@H]4CC[C@H](NC(=O)CN)CC4)c3)c2c1` [Example 246, N-(trans-4-{[6-chloro-4-(5-methoxy-1H-pyrrolo[2,3-b]pyridin-3-yl)pyridin-2-yl]amino}cyclohexyl)glycinamide], the pKi was greater than 8.00. `COc1ccnc2[nH]cc(-c3cc(Cl)nc(NC4CCCCC4)c3)c12` [Example 247, 6-chloro-N-cyclohexyl-4-(4-methoxy-1H-pyrrolo[2,3-b]pyridin-3-yl)pyridin-2-amine] had a pKi greater than 8.00.

In turn, `CCNC(=O)Nc1cnc2[nH]cc(-c3cc(Cl)nc(NC4CCCCC4)c3)c2c1` [Example 248, 1-{3-[2-chloro-6-(cyclohexylamino)pyridin-4-yl]-1H-pyrrolo[2,3-b]pyridin-5-yl}-3-ethylurea] had a pKi greater than 8.00.

Turning to `O=C(N[C@H]1CC[C@H](Nc2cc(-c3c[nH]c4ncccc34)cc(Cl)n2)CC1)C1CN(Cc2ccncc2)C1` [Example 249, N-(trans-4-{[6-chloro-4-(1H-pyrrolo[2,3-b]pyridin-3-yl)pyridin-2-yl]amino}cyclohexyl)-1-(pyridin-4-ylmethyl)azetidine-3-carboxamide], the pKi was greater than 8.00.

Consider `O=C(N[C@H]1CC[C@H](Nc2cc(-c3c[nH]c4ncccc34)cc(Cl)n2)CC1)C1CN(C2CCNCC2)C1` [Example 250, N-(trans-4-{[6-chloro-4-(1H-pyrrolo[2,3-b]pyridin-3-yl)pyridin-2-yl]amino}cyclohexyl)-1-(piperidin-4-yl)azetidine-3-carboxamide], for which the pKi was greater than 8.00. In turn, `COc1cnc2[nH]cc(-c3cc(Cl)nc(N[C@H]4CC[C@H](NC(=O)CNC5CCCCC5)CC4)c3)c2c1` [Example 251, N-(trans-4-{[6-chloro-4-(5-methoxy-1H-pyrrolo[2,3-b]pyridin-3-yl)pyridin-2-yl]amino}cyclohexyl)-N^2-cyclohexylglycinamide] gave a pKi greater than 8.00. Compound `COc1cnc2[nH]cc(-c3cc(Cl)nc(NC4CCC(C5CCN(C6CCC6)CC5)CC4)c3)c2c1` (stereo not drawn) [Example 252, 6-chloro-N-[4-(1-cyclobutylpiperidin-4-yl)cyclohexyl]-4-(5-methoxy-1H-pyrrolo[2,3-b]pyridin-3-yl)pyridin-2-amine] gave a pKi greater than 8.00. With `COc1cnc2[nH]cc(-c3cc(Cl)nc(N[C@H]4CC[C@H](NS(=O)(=O)C5CCCCC5)CC4)c3)c2c1` [Example 253, N-(trans-4-{[6-chloro-4-(5-methoxy-1H-pyrrolo[2,3-b]pyridin-3-yl)pyridin-2-yl]amino}cyclohexyl)cyclohexanesulfonamide] the figure was greater than 8.00. To `COc1cnc2[nH]cc(-c3cc(Cl)nc(N[C@H]4CC[C@H](NC(=O)CN5CCOCC5)CC4)c3)c2c1` [Example 254, N-(trans-4-{[6-chloro-4-(5-methoxy-1H-pyrrolo[2,3-b]pyridin-3-yl)pyridin-2-yl]amino}cyclohexyl)-2-(morpholin-4-yl)acetamide] belongs greater than 8.00; to `CC(=O)Nc1cccc(-c2cnc3[nH]cc(-c4cc(Cl)nc(NC5CCCCC5)c4)c3c2)c1` [Example 255, N-(3-{3-[2-chloro-6-(cyclohexylamino)pyridin-4-yl]-1H-pyrrolo[2,3-b]pyridin-5-yl}phenyl)acetamide], greater than 8.00; to `CS(=O)(=O)Nc1cnc2[nH]cc(-c3cc(Cl)nc(NC4CCCCC4)c3)c2c1` [Example 256, N-{3-[2-chloro-6-(cyclohexylamino)pyridin-4-yl]-1H-pyrrolo[2,3-b]pyridin-5-yl}methanesulfonamide], greater than 8.00. To `COc1cnc2[nH]cc(-c3cc(Cl)nc(NC4CCC(CC5CCC(NC(=O)c6cccnc6)CC5)CC4)c3)c2c1` (stereo not drawn) [Example 257, N-{4-[(4-{[6-chloro-4-(5-methoxy-1H-pyrrolo[2,3-b]pyridin-3-yl)pyridin-2-yl]amino}cyclohexyl)methyl]cyclohexyl}pyridine-3-carboxamide] belongs greater than 8.00; to `COc1cnc2[nH]cc(-c3cc(Cl)nc(N[C@H]4CC[C@H](NC(=O)CNCC(C)(C)C)CC4)c3)c2c1` [Example 258, N-(trans-4-{[6-chloro-4-(5-methoxy-1H-pyrrolo[2,3-b]pyridin-3-yl)pyridin-2-yl]amino}cyclohexyl)-N^2-(2,2-dimethylpropyl)glycinamide], greater than 8.00.

As for `COc1cnc2[nH]cc(-c3cc(Cl)nc(NC4CCC(CC5CCC(N(C)C)CC5)CC4)c3)c2c1` (stereo not drawn) [Example 259, 6-chloro-N-(4-{[4-(dimethylamino)cyclohexyl]methyl}cyclohexyl)-4-(5-methoxy-1H-pyrrolo[2,3-b]pyridin-3-yl)pyridin-2-amine], the pKi is greater than 8.00. In turn, `COc1cnc2[nH]cc(-c3cc(Cl)nc(NC4CCCC(NS(=O)(=O)C5CC5)C4)c3)c2c1` (stereo not drawn) [Example 260, N-(3-{[6-chloro-4-(5-methoxy-1H-pyrrolo[2,3-b]pyridin-3-yl)pyridin-2-yl]amino}cyclohexyl)cyclopropanesulfonamide] showed a pKi greater than 8.00.
